Experimental data published in paper PMC12264794, “Homoleptic complexes of titanium(IV) fused with O^N^O Schiff base derivatives: design, BSA–DNA interaction, molecular docking, DFT and cytotoxicity” (RSC Advances, 2025).
Like-named read-outs stand apart in the source and are kept apart here.

What was measured:
CT-DNA = experiment: Competitive EtBr displacement fluorescence quenching on CT-DNA; format: binding, calf; settings: for KSV, Stern–Volmer quenching constant: EB-CT-DNA adduct
Description: Using fluorescence spectroscopy, the competitive binding relationship between metal complexes and CT-DNA bound to ethidium bromide was investigated. EtBr and CT-DNA solutions at a 5 mM concentration were made in PBS buffer (pH 7.4) for the fluorescence studies. After that, the reference solutions were allowed to settle at room temperature for an hour and the CT-DNA reference solution (200 μM) was coupled to ethidium bromide (50 μM) and allowed to rest for the specified period. The excitation and emission wavelengths were set at 460 nm and incremental addition of Ti(IV) complex concentrations ranging from 0 to 80 μM were used to titrate constant concentrations of EtBr-CT-DNA solution.[43,44]
A known volume of 200 μM CT-DNA (5 Mm) and 50 μM EB was mixed with an aqueous PBS buffer to make an EB-CT-DNA solution. The mixture was then kept at room temperature for 20 minutes before the complexes were titrated. Analysis of the competitive interaction mechanisms of the complexes towards CT-DNA involved the incremental addition of Ti(IV) complexes to the mixture of EB-CT-DNA. The modification in the emission spectral profile of EB-DNA indicated the impact of the addition of the complexes and there was a noticeable decrease in inflorescence intensity when the Ti(IV) complexes (0–100 μM) were added to the EB-CT-DNA system (Fig. 4(a), ESI Fig. S63 ^† and Table 2).
The linear plot of I0/I versus [complex] […] KSV is the Stern–Volmer quenching constant, and [Q] is the quencher concentration.6 Kapp × [Complex]50 = KEtBr × [EtBr]For the Ti(IV) complexes, Kapp (the apparent binding constant) was calculated using eqn (6), where KEtBr (1.0 × 10^7 M^−1) is the DNA binding constant of EB, [EtBr] is the concentration of EB = 10 μM and [Complex]50 denotes the complex concentration at which the fluorescence intensity of the DNA-EB adduct is reduced to 50%. […] Furthermore, the number of binding sites (n) and the equilibrium binding constant K were ascertained by using the Scatchard eqn (7):7 Log(I0 − I/I) = log K + n log[Q]where I0 is the fluorescence intensity of CT-DNA + EtBr in the absence of complex and I points to the fluorescence intensities of CT-DNA in the presence of a complex of concentration [Q]. The significant quenching in fluorescence intensity of all metal complexes (Table 2), the Stern–Volmer (ESI Fig. S64 ^†) and Scatchard plots (Fig. 4(c), ESI Fig. S65 ^† and Table 2), and other computations performed, supported the strong groove-binding interaction mode with CT-DNA.

BSA = biological target: T1, BSA (Bos taurus, UniProt P02769); experiment: BSA site marker (ibuprofen, warfarin) fluorescence quenching; format: binding, bovine; settings: 298 K; for Kb binding constant, BSA+Ibuprofen: site probe ibuprofen; for Kb binding constant, BSA + Warfarin: site probe warfarin
T1 construct: purchased Himedia Chemicals
Description: Fluorescence emission spectroscopy was used for site marker investigation, using an excitation wavelength of 280 nm. As they bind to the two most prevalent drug-binding sites, Sudlow sites I and II, two distinct site marker medications, warfarin (WAR) and ibuprofen (IBU), were utilized as particular site markers (probes) in this experiment. Separately, 10 mg of the site marker probes (WAR) and (IBU) were dissolved in PBS buffer. Subsequently, a known quantity of BSA was added to each probe stock solution to achieve a 5 mM concentration, and the mixture was maintained at 2 to 6 °C. The BSA + site marker binary solution was then titrated with different metal complex concentrations ranging from 0 to 80 μM, while maintaining constant binary solutions of BSA + IBU and BSA + WAR.[55,56]
In our experiment, fluorescence titration techniques were employed to determine the binding position of the BSA molecule. For the fluorescence titration, the excitation wavelength was […], and the emission was monitored between 300 and 500 nm where a fixed concentration of BSA (3 × 10^−6 M) and site markers (BSA + WAR) (BSA + IBU) were taken separately and titrated with the incremental addition of Ti-1-IS to Ti-6-IBr (0–100 μM). By comparing the Ksv values shown with and without site markers, the binding site of Ti(IV) complexes inside BSA was identified (ESI Table S3 ^†).
The Scatchard eqn (9) was used to examine the emission quenching data.

MCF7 cells = experiment: MTT cytotoxicity assay, MCF7; format: cell-based, human; settings: 48 h of drug exposure
Description: The in vitro cytotoxicity of the Ti(IV) complexes under investigation was investigated using MTT, a micro-titration colorimetric method. The in vitro cytotoxicity test of the Ti(IV) complexes was evaluated against the cervical cancer cell line (HeLa), human breast cancer cell line (MCF-7) and human kidney normal cell line (HEK-293).[65,66]
In the cytotoxicity assay, tetrazolium salt 3-[4,5-dimethylthiazol-2-yl]-2,5diphenyl tetrazolium bromide (MTT) was utilized to assess cell viability. The MTT powder was diluted in Dulbecco's PBS (stock solution of MTT (5 mg mL^−1)) to attain a final concentration of 0.5 mg mL^−1 and a […] was used to filter and sterilize the stock solution, which was then kept at 2–6 °C. In metabolically active cells, MTT is reduced to produce an insoluble purple formazan product. In the exponential phase, cells were taken out of the stored cultures after the 48-hour recovery period, following seeding onto 96-well plates at a density of 1 × 10^4 cells per well in 100 μL medium at 37 °C in a 95% air and 5% CO2 environment, and the cells were incubated for 12 hours. Cell lines were treated for 48 hours with Ti(IV) complexes at varying doses (9.5–300 μM) and cis-platin as a control (apart from normal cells). After 48 hours of incubation at 37 °C, the medium was removed and 100 μL of DMSO was added to dissolve the […], and the culture plates were shaken for five minutes. A Bio-Rad xMARK™ multi-well plate reader was used to measure the absorbance of each well at 570 nm. Using eqn (2), the percentage viability, which represents the relative viability of the treated cells in comparison to the control cells, was calculated, and the IC50 values and standard deviation of the substances under investigation were calculated in triplicate.2 [drawing 2]
An MTT assay was used to examine the cytotoxic effectiveness of the produced Ti(IV) complexes. After 48 hours of incubation, the cytotoxicity of Ti-1-IS to Ti-6-IBr was evaluated against human cancer cell lines, such as breast carcinoma (MCF7) and cervical cancer (HeLa), as well as the non-cancerous human embryonic kidney (HEK) cell line, by using the widely used therapeutic drug, cis-platin, as a positive control by following the standard protocol.

[1] = n-Octanol/water partition coefficient, shake flask method; format: physicochemical; settings: partition coefficient of n-octanol/water
Description: Drugs were measured for oral bioavailability and cellular accumulation using their lipophilicity. This can be stated as the log P value of the n-octanol/water partition coefficient, which is an essential prerequisite for many in silico medicinal chemistry approaches. The n-octanol/water partition coefficient (log Po/w), where Po/w = the octanol/water partition coefficient, was analyzed using the shake flask method. The experimental log Po/w values of these complexes were discovered to be between 0.12 and 0.87 (ESI Fig. S60 ^† and Table 1).

[2] = from eqn (6), complex concentration at 50% fluorescence

T1 sequence (P02769 25-607): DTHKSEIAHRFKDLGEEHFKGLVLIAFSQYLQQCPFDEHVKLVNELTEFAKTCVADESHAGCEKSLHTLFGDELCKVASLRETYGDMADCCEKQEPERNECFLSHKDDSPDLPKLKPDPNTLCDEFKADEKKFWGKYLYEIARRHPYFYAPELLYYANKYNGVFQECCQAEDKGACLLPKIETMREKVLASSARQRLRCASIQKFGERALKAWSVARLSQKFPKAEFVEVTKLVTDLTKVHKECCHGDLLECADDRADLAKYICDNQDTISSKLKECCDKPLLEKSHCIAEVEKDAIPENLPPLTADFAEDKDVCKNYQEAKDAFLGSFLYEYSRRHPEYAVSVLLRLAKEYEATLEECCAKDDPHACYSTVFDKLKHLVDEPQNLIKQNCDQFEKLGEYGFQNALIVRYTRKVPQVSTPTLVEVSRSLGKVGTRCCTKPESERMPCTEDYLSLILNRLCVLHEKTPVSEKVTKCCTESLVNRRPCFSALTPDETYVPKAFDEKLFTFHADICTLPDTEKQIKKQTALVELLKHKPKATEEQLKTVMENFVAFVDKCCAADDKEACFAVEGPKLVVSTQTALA

| Kb binding constant, BSA+Ibuprofen (BSA) | Kb binding constant, BSA + Warfarin (BSA) | Log Po/w [1] | SMILES | KSV, Stern–Volmer quenching constant (CT-DNA) | Kapp, apparent DNA binding constant (CT-DNA; [2]) | IC50 (MCF7 cells) | Kapp, apparent DNA binding constant (CT-DNA) | KSV, Stern–Volmer quenching constant (CT-DNA; text value) |
| --- | --- | --- | --- | --- | --- | --- | --- | --- |
| 340 M⁻¹ | 480 M⁻¹ | 0.87 | [O-]C(=NN=Cc1ccccc1[O-])c1ccncc1.[O-]C(=NN=Cc1ccccc1[O-])c1ccncc1.[Ti+4] [Ti-1-IS] | 6000 M⁻¹ | 3.03e+06 M⁻¹ | 109.22 ± 0.1 µM | – | – |
| 540 M⁻¹ | 390 M⁻¹ | 0.15 | Brc1ccc2c(c1)C=NN=C(c1ccncc1)[O][Ti]1([O]C(c3ccncc3)=NN=Cc3cc(Br)ccc3[O]1)[O]2 (centres unmarked) [Ti-6-IBr] | 16000 M⁻¹ | 4.24e+06 M⁻¹ | 84.67 ± 0.5 µM | 4.24e+06 M⁻¹ | – |
| 370 M⁻¹ | 400 M⁻¹ | 0.12 | [O-]C(=NN=Cc1cc(F)ccc1[O-])c1ccncc1.[O-]C(=NN=Cc1cc(F)ccc1[O-])c1ccncc1.[Ti+4] [Ti-4-IF] | 14000 M⁻¹ | 3.41e+06 M⁻¹ | 109.8 ± 0.2 µM | – | – |
| 350 M⁻¹ | 160 M⁻¹ | 0.31 | [O-]C(=NN=Cc1cc(Cl)ccc1[O-])c1ccncc1.[O-]C(=NN=Cc1cc(Cl)ccc1[O-])c1ccncc1.[Ti+4] [Ti-5-ICl] | 26000 M⁻¹ | 3.43e+06 M⁻¹ | 65.2 ± 1.2 µM | – | 26000 M⁻¹ |
| 150 M⁻¹ | 690 M⁻¹ | 0.78 | [O-]C(=NN=Cc1c([O-])ccc2ccccc12)c1ccncc1.[O-]C(=NN=Cc1c([O-])ccc2ccccc12)c1ccncc1.[Ti+4] [Ti-2-IN] | 19000 M⁻¹ | 3.56e+06 M⁻¹ | 85.04 ± 0.5 µM | – | – |
| 500 M⁻¹ | 580 M⁻¹ | 0.13 | COc1cccc(C=NN=C([O-])c2ccncc2)c1[O-].COc1cccc(C=NN=C([O-])c2ccncc2)c1[O-].[Ti+4] [Ti-3-IO] | 16000 M⁻¹ | 3.4e+06 M⁻¹ | 102.9 ± 0.3 µM | – | – |
